In patent US9446091B2, “Caspofungin or salts thereof with high purity, as well as preparation method and use thereof” (Shanghai Techwell Biopharmaceutical Co., Ltd., priority 2011, dated 2016):

Test: Study on the stability of caspofungin with low solvent residue and hyposaline (storage, then HPLC purity)
Type: physicochemical
Details: for Purity: HPLC purity after storing at −25~−20° C. for 30 days; for Initial purity: HPLC purity before storage; for stability of the samples (degradation by HPLC analysis): stored at −25-20° C. for 30 days
Description: In the present invention, HPLC is used to determine the purity of caspofungin or salts thereof (the compound of formula 1 or salts thereof), and to investigate the stability of sample. Said HPLC is described as follows:
Chromatographic column: 4.6×250 mm, 5 μm C18 column;
Mobile phase: A: 0.1% aqueous perchloric acid and 0.075% aqueous sodium chloride; B: acetonitrile;
Flow rate: 1.0 ml/min; Injection volume: 10 μL;
Column temperature: 35° C.±5° C.; Detection wavelength: 220 nm; Running time: 60 mins;
Retention time of major peak: about 27 min;
The samples prepared in the above example 3, example 4, example 5, example 6, example 7, example 8 and example 9 were stored at −25-20° C. for 30 days. And then HPLC analysis was applied on these samples.

In the case of `CCC(C)CC(C)CCCCCCCCC(=O)N[C@H]1C[C@@H](O)[C@@H](NCCN)NC(=O)[C@@H]2[C@@H](O)CCN2C(=O)[C@H]([C@H](O)CCN)NC(=O)[C@H]([C@H](O)[C@@H](O)c2ccc(O)cc2)NC(=O)[C@@H]2C[C@@H](O)CN2C(=O)[C@H]([C@@H](C)O)NC1=O` (single isomer, unassigned) [Example 3, caspofungin diacetate], the Purity is reported as 99.90%, the Initial purity is reported as 99.90% and the “stability of the samples (degradation by HPLC analysis)” value (from here on “stability of the samples”) is reported as “no degradation occured”.
For `CCC(C)CC(C)CCCCCCCCC(=O)N[C@H]1C[C@@H](O)[C@@H](NCCN)NC(=O)[C@@H]2[C@@H](O)CCN2C(=O)[C@H]([C@H](O)CCN)NC(=O)[C@H]([C@H](O)[C@@H](O)c2ccc(O)cc2)NC(=O)[C@@H]2C[C@@H](O)CN2C(=O)[C@H]([C@@H](C)O)NC1=O` (single isomer, unassigned) [Example 4, caspofungin diacetate], the Purity was 99.90%, the Initial purity was 99.90% and the “stability of the samples” value was “no degradation occured”.
For `CCC(C)CC(C)CCCCCCCCC(=O)N[C@H]1C[C@@H](O)[C@@H](NCCN)NC(=O)[C@@H]2[C@@H](O)CCN2C(=O)[C@H]([C@H](O)CCN)NC(=O)[C@H]([C@H](O)[C@@H](O)c2ccc(O)cc2)NC(=O)[C@@H]2C[C@@H](O)CN2C(=O)[C@H]([C@@H](C)O)NC1=O` (single isomer, unassigned) [Example 5, caspofungin diacetate], the Purity was 99.91%, the Initial purity was 99.91% and the “stability of the samples” value was “no degradation occured”.
With `CCC(C)CC(C)CCCCCCCCC(=O)N[C@H]1C[C@@H](O)[C@@H](NCCN)NC(=O)[C@@H]2[C@@H](O)CCN2C(=O)[C@H]([C@H](O)CCN)NC(=O)[C@H]([C@H](O)[C@@H](O)c2ccc(O)cc2)NC(=O)[C@@H]2C[C@@H](O)CN2C(=O)[C@H]([C@@H](C)O)NC1=O` (single isomer, unassigned) [Example 6, caspofungin diacetate] the Purity was 99.92%, the Initial purity was 99.92% and the “stability of the samples” value was “no degradation occured”.
For `CCC(C)CC(C)CCCCCCCCC(=O)N[C@H]1C[C@@H](O)[C@@H](NCCN)NC(=O)[C@@H]2[C@@H](O)CCN2C(=O)[C@H]([C@H](O)CCN)NC(=O)[C@H]([C@H](O)[C@@H](O)c2ccc(O)cc2)NC(=O)[C@@H]2C[C@@H](O)CN2C(=O)[C@H]([C@@H](C)O)NC1=O` (single isomer, unassigned) [Example 7, caspofungin diacetate], the Purity was 99.90%, the Initial purity was 99.90% and the “stability of the samples” value was “no degradation occured”.
For `CCC(C)CC(C)CCCCCCCCC(=O)N[C@H]1C[C@@H](O)[C@@H](NCCN)NC(=O)[C@@H]2[C@@H](O)CCN2C(=O)[C@H]([C@H](O)CCN)NC(=O)[C@H]([C@H](O)[C@@H](O)c2ccc(O)cc2)NC(=O)[C@@H]2C[C@@H](O)CN2C(=O)[C@H]([C@@H](C)O)NC1=O` (single isomer, unassigned) [Example 8, caspofungin diacetate], the Purity was 99.88%, the Initial purity was 99.88% and the “stability of the samples” value was “no degradation occured”.
For `CCC(C)CC(C)CCCCCCCCC(=O)N[C@H]1C[C@@H](O)[C@@H](NCCN)NC(=O)[C@@H]2[C@@H](O)CCN2C(=O)[C@H]([C@H](O)CCN)NC(=O)[C@H]([C@H](O)[C@@H](O)c2ccc(O)cc2)NC(=O)[C@@H]2C[C@@H](O)CN2C(=O)[C@H]([C@@H](C)O)NC1=O` (single isomer, unassigned) [Example 9, caspofungin diacetate], the Purity was 99.86%, the Initial purity was 99.86% and the “stability of the samples” value was “no degradation occured”.
